Here are results for 48 compounds from PubChem BioAssay (NCI).

“And” between values parts separate entries of the source, which are not always exact repeats. Identical values can stand only once.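 Dose response: 5 concentrations. Exposure: 48 h. Format: 96-well plates. Endpoint: linear interpolation; highest concentration if not reached. Here, GI50 denotes the concentration required for 50% inhibition of growth. The concentration for full growth arrest is given as TGI.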

The assay deals with MDA-MB-468 breast. Put plainly: growth of human tumour cells (NCI), 48 h.
In the case of `CCCCCC(=O)OCC(=O)O[C@@H]1C[C@]2(C(C)C)O[C@@]1(C)[C@@H]1CC[C@@H](C)[C@H]1[C@@H]2OC(=O)/C=C/c1ccccc1`, the GI50 is 27 µM and the TGI was > 76.9 µM.
On the same counts, the results for `O=C(NCCN1CCOCC1)Nc1ccc(-c2cc3c(Nc4ccc(Oc5cccc(C(F)(F)F)c5)c(Cl)c4)ncnc3s2)cc1` are 1 µM and 2.5 µM.
On the same counts, the results for `COC(=O)[C@@H](Cc1c[nH]c2ccccc12)NC(=O)/C=C/c1ccccc1` are 2.57 µM and 25.9 µM.
With `CC(C)c1cc(CNc2nc(Nc3cc(C4CC4)[nH]n3)cc(N3CCN(C)CC3)n2)on1`, the GI50 is 1.3 µM; the TGI is 5.5 µM and 2.2 µM.
In the case of `COc1cc(-c2nn(C(=O)NS(=O)(=O)c3ccc(C)cc3)cc2-c2ccncc2)ccc1Cl`, the GI50 is 2.91 µM and the TGI is 19.8 µM.
On the same counts, the results for `COc1cccc(Cn2cc3c(c2)-c2oncc2CC3)c1` are 0.196 µM and 0.582 µM.
In the same order, the values of `NC(N)=N/N=C/c1cccc(Cl)c1Cl` are 1.52 µM and 3.24 µM.
On to `COc1cc(-c2nc(SCC(=O)Nc3ccc(C(C)=O)cc3)[nH]c(=O)c2C#N)cc(OC)c1OC`, for which the GI50 was 25.4 µM and the TGI is > 100 µM.
On the same counts, the results for `CC(F)(F)c1cc(F)ccc1-c1sc2cc(O)ccc2c1Oc1ccc(/C=C/C(=O)O)cc1` are 5.94 µM and 43.4 µM.
On the same counts, the results for `CCOC(=O)N1C/C(=C/c2ccc(OC)cc2)C(=O)/C(=C/c2ccc(OC)cc2)C1` are 1.54 µM and 4.04 µM.
On the same counts, the results for `COc1ccccc1CNC(=O)C1c2ccccc2C(=O)N(CC(C)C)C1c1cccs1` (stereo not given) are 12 µM and 60.5 µM.
As for `O=C(NCCCNC(=O)OCc1ccc2c(Br)cc(Br)c(O)c2n1)OCc1ccc2c(Br)cc(Br)c(O)c2n1`, the GI50 is > 100 µM and the TGI was > 100 µM.
As for `Cc1ccccc1-n1c(/C=C\c2ccccn2)nc2ccccc2c1=O`, the GI50 is 3.61 µM and the TGI was determined as 32.2 µM.
On the same counts, the results for `CCCCN(CCCC)CC(C)(C)C(O)c1ccc(OC)c2ccccc12` (stereo not given) are 1.56 µM and 3.97 µM.
On the same counts, the results for `O=C1/C(=C/c2ccc([N+](=O)[O-])s2)Oc2ccccc21` are 0.39 µM and 2.17 µM.
Regarding `CN(C)CCOC1(Cc2ccc(Cl)cc2Cl)CCC(C(C)(C)C)CC1` (stereo not given), the GI50 was 1.78 µM and 1.77 µM; the TGI is 3.47 µM and 3.49 µM.
For the compound `COc1ccc(NC(=O)Nc2ccc(Nc3nc(C)cc(Nc4ccc(C)cc4)n3)cc2)cc1`, the GI50 is 1.58 µM and the TGI worked out at 3.1 µM.
On the same counts, the results for `COc1cc(C2CC(c3ccc4c(c3)OCO4)=NN2C(C)=O)cc(OC)c1OC` (stereo not given) are 0.289 µM and 1.71 µM.
As to `Cc1[nH]nc2c1N=C(c1ccccc1F)c1cc(C#N)ccc1N2`, the GI50 is 0.0932 µM and the TGI was 7.2 µM.
In the same order, the values of `CCCCCCNC(=O)Oc1ccc(/C(=C(\C)c2ccccc2)c2ccc(OCCN3CCCCC3)cc2)cc1` are 1.74 µM and 5.17 µM.
In the same order, the values of `CCn1c(-c2nonc2N)nc2c(C#CC(C)(C)O)nc(O[C@@H](CN)c3ccccc3)cc21` are 0.0173 µM and 0.435 µM.
On the same counts, the results for `Cc1ccc(S(=O)(=O)NC(CCC(=O)Nc2ccccc2)C(=O)Nc2ccccc2)cc1` (stereo not given) are 0.289 µM and 1.13 µM.
On to `N=C(N)c1ccc(-c2ccc(-c3ccc(Cl)cn3)s2)cc1`, for which the GI50 was 1.6 µM and the TGI was found to be 3.41 µM.
Regarding `COc1cccc2c1cc([N+](=O)[O-])c1c(C(=O)O)cc3c(c12)OCO3`, the GI50 was 8.57 µM and the TGI was 26.1 µM.
On the same counts, the results for `Oc1ccc(Br)cc1/C=N/NC(=S)NC12CC3CC(CC(C3)C1)C2` are 1.8 µM and 4.77 µM.
As to `COc1ccc(NC(=O)c2sc3nc(C)c(C(O)c4ccc(OC)cc4)cc3c2N)cc1` (stereo not given), the GI50 is 0.145 µM and the TGI came to 1.61 µM.
In the same order, the values of `C[C@@]1(c2ncncc2F)NC(=O)c2cc(-c3cn[nH]c3)ccc21` are 21.6 µM and 51.5 µM.
On the same counts, the results for `C=CC[Se]C(=O)Cc1c(C)n(C(=O)c2ccc(Cl)cc2)c2ccc(OC)cc12` are 1.87 µM and 3.74 µM.
In the same order, the values of `CS(=O)c1ccc(-c2nc(-c3ccc(F)cc3)c(-c3ccncc3)[nH]2)cc1` (stereo not given) are 13.4 µM and > 60.6 µM.
Consider `CCCC(=O)NC(c1ccc2c(c1)OCO2)c1ccc2cccnc2c1O` (stereo not given), for which the GI50 is 0.388 µM and the TGI came out at 2.53 µM.
On the same counts, the results for `O=C(CC1(O)C(=O)Nc2ccc(Br)cc21)c1ccc(C(=O)NCC2CCC3(CC2)OOC2(CCCCC2)OO3)cc1` (stereo not given) are 3.13 µM and 20.3 µM.
With `CN(Cc1ccccc1)S(=O)(=O)/N=C1\NC(=O)NC1=C(Cl)Cl`, the GI50 was 0.427 µM and the TGI worked out at 12.8 µM.
On the same counts, the results for `COC(=O)c1c2c(c(C)[n+]([O-])c1C)C(=O)C(NCc1cccc(OC)c1)=CC2=O` are 1.52 µM and 3.84 µM.
On the same counts, the results for `CC[C@H](Nc1nc(N)nc(N)c1Cl)c1nc2cccc(NCc3ccc(C(=O)NO)cc3)c2c(=O)n1-c1ccccc1` are 1.5 µM and 3.42 µM.
As for `CC[C@@H](C)[C@H]([C@H](CC(=O)N1CCC[C@@H]1[C@@H](OC)[C@H](C)C(=O)N[C@H](Cc1ccccc1)c1nccs1)OC)N(C)C(=O)[C@H](NC(=O)[C@@H](C(C)C)N(C)C)C(C)C`, the TGI is 67.2 µM.
Consider `COc1ccc(C2C(c3ccccc3)C(=O)N2c2cc(OC)c(OC)c(OC)c2)cc1I` (stereo not given), for which the GI50 was 0.373 µM and the TGI is > 100 µM.
In the same order, the values of `BrC(Br)(Br)c1cnc2ccccc2n1` are 1.15 µM and 2.76 µM.
In the same order, the values of `CCCC[P+](c1ccccc1)(c1ccccc1)c1ccccc1` are 0.219 µM and 2.37 µM.
In the same order, the values of `CN(C)CCOc1nc2c3cccnc3cc(-c3cccc(Cl)c3)c2c2ncccc12` are 1.43 µM and 2.86 µM.
As for `CCCC1CCC(O)(C(C)(O)C(=O)NC2C(=O)N3NCCCC3C(=O)N(O)C(C)C(=O)N3NCCCC3C(=O)N3NCC(O)CC3C(=O)NC(C)C(=O)OC2C(C)C)OC1CC` (stereo not given), the GI50 was > 25 µM and the TGI was > 25 µM.
For the compound `O=C(Nc1cccc2cccnc12)c1ccc(N2C(=O)[C@@H]3[C@H](C2=O)[C@@H]2C=C[C@H]3C2)cc1`, the GI50 was 14.2 µM and the TGI was determined as 81.4 µM.
Take `Oc1ccc(/C=N/Nc2nc3ccccc3s2)c(O)c1`: the GI50 is 2.08 µM and the TGI is 8.4 µM.
Turning to `CN1CCN(Cc2ccc(NC(=O)c3[nH]ncc3Nc3ncnc4sccc34)cc2)CC1`, the GI50 was 0.38 µM and the TGI was determined as 2.56 µM.
In the same order, the values of `O=C1C=CN(C2OC(CO)C(O)C2O)C(=O)C1` (stereo not given) are > 2500 µM and > 2500 µM.
As to `COc1cnc2c(c1)C(=O)c1c-2n(CCCN2CCNCC2)c(=O)c2cc(Cl)ccc12`, the GI50 was 0.552 µM and the TGI was found to be 2.2 µM.
On the same counts, the results for `COc1cc2nc(-c3ccc(-n4cncc4-c4ccc(N)cc4)cc3)sc2c(OC)c1OC` are 1.82 µM and 4.47 µM.
Turning to `O=C(O)c1ccc(-c2ccc(C(=O)O)cc2I)c(I)c1`, the GI50 was > 100 µM and the TGI was > 100 µM.
As for `COc1ccc2[nH]c(-c3cccc(N(C)C)c3)cc(=O)c2c1`, the GI50 was 13.3 µM and the TGI is > 100 µM.
